Results taken from patent publication US9872844B2, “Compositions and methods for the reduction or prevention of hepatic steatosis” (priority 2014, dated 2018).

Legend:
[1] = system: hepatic lipid accumulation; conditions: 25 mg icariin/kg diet; corresponding to 4 mg/kg body weight/day; previous published studies; cited from earlier work
[2] = system: hepatic steatosis; experiment: Liver weight after six weeks treatment in chronic high fat diet mice; format: in vivo, C57Bl/6 mice; conditions: therapeutic metformin alone 1.5 g/kg diet
From the text: (§1) Chronic high fat diet was used in C57Bl/6 mice as an experimental model of hepatic steatosis. Male C57/BL6 mice were either maintained on standard low-fat diet (control; LFD; 10% energy from fat) or placed on a high fat (HFD; 60% energy from fat, Research Diets #D12492, Research Diets, Inc, New Brunswick, N.J.) at six weeks of age to induce obesity and fatty infiltration of the liver. […] Animals were then randomized to treatments for an additional six weeks, with 10 animals per group, as specified in the following examples.
(§2) In this study, the effects of metformin alone (therapeutic dose), subtherapeutic metformin alone, subtherapeutic leucine, and various combinations of leucine, metformin, and resveratrol on liver weight and hepatic lipid accumulation were assessed. The 1.5 g/kg diet of metformin corresponds to a therapeutically effective dose of metformin in humans. […] Likewise, the 24 g/kg dose of leucine represents a sub-therapeutic dose that was predicted to exert no significant independent effects on liver mass or hepatic steatosis. Following induction of hepatic steatosis as described in Example 1, animals were treated according to the following treatment groups as depicted in Table 21:
(§3) In this study, the effects of metformin alone (therapeutic dose) vs. combination therapy with sub-therapeutic amounts of metformin and leucine on liver weight and hepatic lipid accumulation were assessed. Following induction of hepatic steatosis as described in Example 1, animals were treated for six weeks according to the following treatment groups as depicted in Table 22:

[3] = system: hepatic steatosis; experiment: Histological analysis of hepatic lipid accumulation in chronic high fat diet mice; format: in vivo, C57Bl/6 mice; conditions: HFD mice, six weeks
From the text: as §1, §2, §3

[4] = system: hepatic steatosis; experiment: Prophylactic treatment concurrent with high fat diet: liver mass and hepatic lipid accumulation; format: in vivo, C57Bl/6 mice; conditions: treatment and HFD started same day, six weeks, metformin alone 1.5 g/kg diet, with or without resveratrol 12.5 mg/kg diet
Experimental: In this study, the prophylactic effects of metformin alone, and various combinations of metformin, leucine, and resveratrol on liver mass and hepatic steatosis are assessed. C57Bl/6 mice are assigned to the following experimental groups as depicted in Table 25: Drug treatments and high fat diet feeding (as described in Example 1) are initiated on the same day and are carried out for six weeks. The effects of the treatments and diet on liver mass and hepatic lipid accumulation are assessed as described in the preceding examples. […] In this study, the prophylactic effects of metformin alone, and various combinations of metformin, HMB, and resveratrol on liver mass and hepatic steatosis are assessed. C57Bl/6 mice are assigned to the following experimental groups as depicted in Table 26: Drug treatments and high fat diet feeding (as described in Example 1) are initiated on the same day and are carried out for six weeks. The effects of the treatments and diet on liver mass and hepatic lipid accumulation are assessed as described in the preceding examples. […] In this study, the prophylactic effects of sub-therapeutic leucine alone, and co-administration of leucine and the PDE5-specific inhibitor icariin on liver mass and hepatic steatosis are assessed. […] The effects of the treatments and diet on liver mass and hepatic lipid accumulation are assessed as described in the preceding examples.

[5] = system: liver triglycerides; conditions: Example 3; HFD mice, six weeks; therapeutic metformin alone 1.5 g/kg diet
From the text: as §1, §3

Molecule	effect on liver mass or hepatic lipid accumulation [1]	effect on liver weight ([2]; Example 2, HFD mice, leucine 24 g/kg diet, resveratrol 12.5 mg/kg diet)	effect on liver weight ([2]; Example 3, HFD mice, p<0.02 vs. HFD, n.s. compared to LFD)	effect on liver weight ([2]; Example 4, HFD mice, p<0.03)	hepatic steatosis (histological analysis) ([3]; Example 2, metformin alone 1.5 g/kg diet, leucine 24 g/kg diet, resveratrol 12.5 mg/kg diet, combination with sub-therapeutic metformin)	hepatic steatosis (histological analysis) ([3]; Example 3, single agents at 'therapeutic dosages' (metformin 1.5 g/kg diet))	hepatic steatosis (histological analysis) ([3]; Example 4, therapeutic metformin alone 1.5 g/kg diet)	HFD-induced increase in liver mass and hepatic lipid accumulation (prophylactic) ([4]; Example 6, leucine 24 g/kg diet + metformin 0.15-0.50 g/kg diet)	HFD-induced increase in liver mass and hepatic lipid accumulation (prophylactic) ([4]; Example 7, HMB (CaHMB, 2 g/kg diet) + metformin 0.15-0.50 g/kg diet)	effect on liver triglycerides [5]
COc1ccc(-c2oc3c(CC=C(C)C)c(O[C@@H]4O[C@H](CO)[C@@H](O)[C@H](O)[C@H]4O)cc(O)c3c(=O)c2O[C@@H]2O[C@@H](C)[C@H](O)[C@@H](O)[C@H]2O)cc1 [icariin]	no effect									
metformin		partially reverse the effect of high fat diet on liver weight	reversed the effect of high fat diet on liver weight back to control levels	reversed the effect of high fat diet on liver weight back to control levels	partial reversal of the effects of HFD on hepatic steatosis	partially reversed hepatic steatosis	partially reversed hepatic steatosis	attenuates the HFD-induced increase in liver mass and hepatic lipid accumulation	attenuates the HFD-induced increase in liver mass and hepatic lipid accumulation	partially reversed the effect of high fat diet on liver triglycerides
